Numbers after ± are expanded uncertainties.
Conditions: Liquid, Rate of evaporation

OC[C@@H](O)[C@@H](O)[C@H](O)[C@@H](O)CO [D-sorbitol]
vapor or sublimation pressure (523.15 K): 1.31 ± 0.1 kPa
vapor or sublimation pressure (548.15 K): 4.49 ± 0.35 kPa
vapor or sublimation pressure (573.15 K): 12.3 ± 1 kPa
vapor or sublimation pressure (598.15 K): 30 ± 2.3 kPa
vapor or sublimation pressure (623.15 K): 65 ± 5 kPa

OCC(O)CO [glycerol]
vapor or sublimation pressure (463.15 K): 3.85 ± 0.3 kPa
vapor or sublimation pressure (483.15 K): 8.64 ± 0.67 kPa
vapor or sublimation pressure (503.15 K): 17.9 ± 1.4 kPa
vapor or sublimation pressure (523.15 K): 34.5 ± 2.7 kPa
vapor or sublimation pressure (543.15 K): 62.6 ± 4.8 kPa
